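Protocol summary: plate cells (96-well), add compound at 5 concentrations, incubate 48 h, interpolate endpoints linearly. TGI: total growth inhibition.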

Common to all, as to assay: NCI tumour cell line growth inhibition, 48 h
In test [1] the test system is SF-539 CNS.
In test [2] the test system is M14 melanoma.
In test [3] the test system is OVCAR-8 ovarian.
Test [4] concerns NCI-H460 lung.
Test [5] concerns MDA-MB-231 breast.
The subject of test [6] is MDA-N.
The subject of test [7] is PC-3 prostate.
Test [8] deals with T-47D breast.
Test [9] deals with DU-145 prostate.
The test system of test [10] is SK-MEL-28 melanoma.
For test [11], the system named is CCRF-CEM leukemia.
For test [12], the system named is UACC-257 melanoma.
Test [13] concerns 786-0 renal.
Test [14] relates to HOP-62 NSCLC.
Test [15] deals with SK-MEL-5 melanoma.
For test [16], the system named is IGROV1 ovarian.
Test [17] deals with SF-295 CNS.
Test [18] concerns NCI-H522 lung.
The test system of test [19] is TK-10 renal.
In test [20] the test system is SF-268 CNS.

For `O=S(=O)(O)c1c(Cl)cc(O)c2ncccc12`, the TGI in [1], in test [2], in test [3], in [4], in test [5] and in [6] was over 100 µM in each case. Also, the TGI in test [7], in test [8], in test [9], in [10], in test [11] and in [12] was over 100 µM in each case. In addition, the TGI in test [13], in test [14], in test [15], in test [16] and in test [17] was over 100 µM in each case.

Regarding `Cc1cc(N(CCC#N)CCC#N)ccc1/C(N=Nc1ccc(Cl)cc1)=N\NC(=O)c1cc(Cl)ccc1O`, the TGI is 73.6 µM in test [1]; over 100 µM in test [2]; over 100 µM in test [3]; over 100 µM in test [4]; over 100 µM in test [5]; over 100 µM in test [6]. The TGI in test [7] is over 100 µM; in [8], over 100 µM; in test [9], over 100 µM; in test [18], 37 µM; in test [11], over 100 µM; in test [12], over 100 µM. Moreover, the TGI in test [13] is over 100 µM; in test [19], over 100 µM; in test [14], 56.6 µM; in test [15], over 100 µM; in test [16] it was over 100 µM; in [17], 91.4 µM. The compound also returned a TGI in [20] of 86.2 µM.

For the compound `COc1cc(C=O)ccc1Oc1nnnn1-c1ccccc1`, the TGI in test [2], in test [3], in [4], in test [5], in [6] and in test [7] was over 100 µM in each case. The TGI in test [8] was 58 µM; in test [9], over 100 µM; in test [18] it was over 100 µM; in [10], over 100 µM; in test [11], 52.4 µM; in test [12] it was over 100 µM. Further, the TGI was over 100 µM in test [13]; over 100 µM in test [19]; over 100 µM in [14]; 59.2 µM in [15]; over 100 µM in [16]; over 100 µM in test [17]. Also, the TGI in test [20] is over 100 µM.

Consider `CC(=O)[C@@H]1[C@@H](OC(=O)CCC(C)COC2OC(CO)C(O)C(O)C2O)C[C@H]2[C@@H]3CC=C4C[C@@H](OC5OC(CO)C(OC6OC(C)C(O)C(O)C6O)C(O)C5OC5OC(C)C(O)C(O)C5O)CC[C@]4(C)[C@H]3CC[C@]12C` (some centres not stated), for which the TGI in test [2], in [3], in test [4], in test [5], in test [6] and in test [7] was over 100 µM in each case. Further, the TGI is over 100 µM in test [8]; over 100 µM in test [9]; 97 µM in [18]; over 100 µM in [10]; over 100 µM in test [11]; over 100 µM in [12]. The TGI in [13], in test [19], in test [14], in test [15], in test [17] and in test [20] was over 100 µM in each case.

Consider `COc1ccc(/C=C2\CCC(C)C3=C(c4ccc(OC)c(OC)c4)C(C#N)=C(N)OC32)cc1OC` (configuration not stated), for which the TGI was 15 µM in test [2]; over 100 µM in test [3]; 11.1 µM in [4]; 17.5 µM in test [5]; 12.1 µM in test [6]; 38.1 µM in test [7]. The TGI in test [8] is 7.97 µM; in test [9], over 100 µM; in test [10] it was 31.7 µM; in [11], 19.2 µM; in [12], 37 µM; in [13] it was 25.1 µM. Further, the TGI was over 100 µM in test [19]; 4.66 µM in [15]; 9.45 µM in test [16]; 75.9 µM in [17]; over 100 µM in [20].

As to `CC(=O)Nc1ccc(Nc2cc(=O)[nH]c(=O)[nH]2)cc1`, the TGI in test [1], in test [2], in test [3], in test [4], in [5] and in [6] was over 100 µM each time. Also, the TGI in [7], in test [8], in [9], in [10], in test [12] and in [13] was over 100 µM in each case. For the same compound, the TGI in [19], in test [14], in test [15], in [16], in [17] and in [20] was over 100 µM in each case.

On to `CCCCCC(C)(C)CCC(=O)OC1OC(COC2OC(COC3OC(CO)C(O)C(O)C3O)C(O)C(O)C2O)C(O)C(O)C1O` (configuration not stated), for which the TGI in test [1], in test [2], in [3], in test [4], in [5] and in test [6] was over 100 µM in each case. The TGI in [7], in [8], in test [9], in test [18], in test [11] and in test [12] was over 100 µM each time. The TGI in test [13], in test [19], in test [14], in [15], in test [16] and in [17] was over 100 µM each time. In test [20], this compound came in with a TGI of over 100 µM.

The values above are taken from PubChem BioAssay (NCI).
